# Reference: patent publication US12527782B2, “Use of hexokinase 2/mitochondria-detaching compounds for treating hexokinase-2 (HK2)-expressing cancers” (Vidac Pharma Ltd., priority 2016, dated 2026)
# How the values were obtained:
# [1] = tested on: HaCaT normal immortal keratonocytes; test: XTT cell viability assay, HaCaT; assay type: cell-based, human; conditions: Cell line/XTT, 72 hr
# Method: (§1) A431 (human skin SCC), HT-297.T (human AK), and HaCaT transformed normal keratinocyte cell lines were from ATCC (Manassas, VA) and were maintained in DMEM supplemented with 10% FCS, 4 mM L-Gln, 1 mM sodium pyruvate, 100 U/mL penicillin, 1 μg/mL streptomycin. Human HK1 and HK2 plasmids were purchased from Addgene (Cambridge, MA) and were purified from E. Coli. VDAC1 was purified from sheep liver mitochondria as described (Arbel et al. 2012, incorporated herein by reference). Human skin tissue microarray (SK208 and SK 805) were purchased from US Biomax Inc. (Rockville, MD).
# (§2) For XTT assays, cells were plated in 96-well plates (5,000 cells per well) for 24 hours. Cells were then incubated with different concentrations of Formula C in triplicates for 72 hr in DMEM supplemented with 0.5% FCS and 5 mM Glucose. Cell viability was evaluated using 2,3-bis-(2-methoxy-4-nitro-5-sulfophenyl)-2H-tetrazolium-5-carboxanilide (XTT)-based colorimetric assay kit (Biological Industries Ltd., Kibbutz Beit-Haemek, Israel). The optical density was measured by an Infinite 200 ELISA reader at 450 nm and reference was measured at 630 nm (Tecan, Männedorf, Switzerland).
# A431 Skin SCC cells = test: XTT cell viability assay, A431; assay type: cell-based, human; conditions: Cell line/XTT, 72 hr
# Method: as §1, §2
# [2] = tested on: HT-297.T Actinic keratosis cells; test: XTT cell viability assay, HT-297.T; assay type: cell-based, human; conditions: Actinic keratosis HT-297.T; Cell line/XTT; 72 hr
# Method: as §1, §2
# Colon CXF 243 = test: Colony forming assay (CFA), CXF 243; assay type: cell-based, human; conditions: PDX/CFA
# Method: (§3) CFA was performed by Charles River Laboratories (Freiburg, Germany) in 96-well plate format according to a modified two-layer soft agar assay. The origin of the tumor xenografts has been described (Fiebig et al. 1989, incorporated herein by reference). The list of tumors used in this study is detailed in Table 1.
# Stomach GXF 97 = test: CFA, GXF 97; assay type: cell-based, human; conditions: PDX/CFA
# Method: as §3
# [3] = tested on: Leukemia (AML) LEXFAM OCI-AML2; test: CFA, LEXFAM OCI-AML2; assay type: cell-based, human; conditions: Cell line/CFA
# Method: as §3
# [4] = tested on: Leukemia (AML) LEXFAM KG-1; test: CFA, LEXFAM KG-1; assay type: cell-based, human; conditions: Cell line/CFA
# Method: as §3
# [5] = tested on: Leukemia (AML) LEXFAM MV4-11; test: CFA, LEXFAM MV4-11; assay type: cell-based, human; conditions: Cell line/CFA
# Method: as §3
# [6] = tested on: Leukemia (AML) LEXFAM THP-1; test: CFA, LEXFAM THP-1; assay type: cell-based, human; conditions: Cell line/CFA
# Method: as §3
# [7] = tested on: Leukemia (BCLL) LEXFCL MEC-1; test: CFA, LEXFCL MEC-1; assay type: cell-based, human; conditions: Cell line/CFA
# Method: as §3
# [8] = tested on: Leukemia (BCLL) LEXFCM MEG-01; test: CFA, LEXFCM MEG-01; assay type: cell-based, human; conditions: Cell line/CFA
# Method: as §3
# [9] = tested on: Leukemia (BCLL) LEXFCM EM-2; test: CFA, LEXFCM EM-2; assay type: cell-based, human; conditions: Cell line/CFA
# Method: as §3
# [10] = tested on: Lung (NSCLC, adeno) LXFA 1012; test: CFA, LXFA 1012; assay type: cell-based, human; conditions: PDX/CFA
# Method: as §3
# [11] = tested on: Lung (NSCLC, epidermoid) LXFE 690; test: CFA, LXFE 690; assay type: cell-based, human; conditions: PDX/CFA
# Method: as §3
# Lung (SCLC) LXFS NCI-H82 = test: CFA, LXFS NCI-H82; assay type: cell-based, human; conditions: Cell line/CFA
# Method: as §3
# [12] = tested on: Lymphoma (Non-Hodgkin) LYXFNH U-937; test: CFA, LYXFNH U-937; assay type: cell-based, human; conditions: Cell line/CFA
# Method: as §3
# Breast MAXF 401 = test: CFA, MAXF 401; assay type: cell-based, human; conditions: PDX/CFA
# Method: as §3
# Prostate PRXF MRI-H-1579 = test: CFA, PRXF MRI-H-1579; assay type: cell-based, human; conditions: Cell line/CFA
# Method: as §3
# Kidney RXF 1220 = test: CFA, RXF 1220; assay type: cell-based, human; conditions: PDX/CFA
# Method: as §3
# [13] = tested on: Cutanous T cell lymphoma MyLa; test: CFA, MyLa; assay type: cell-based, human; conditions: Cell line/CFA
# Method: as §3
# [14] = tested on: Cutanous T cell lymphoma MJ; test: XTT cell viability assay, MJ; assay type: cell-based, human; conditions: Cell line/XTT
# Method: as §2
# [15] = molecular target: T1, HK1 association with the mitochondria (Homo sapiens, UniProt P19367); test: Western Blot of mitochondrial fraction, HK1 in A431 cells; assay type: cell-based; conditions: similar experimental setup, data not shown
# T1 construct: human skin SCC A431 cells (which express both HK1 and HK2); endogenous in cells; host or cells: A431
# Method: A431 cells were treated for 2 hours at 37° C. with various concentrations of Formula C in medium without FCS and 2 mM L-Gln. Mitochondria were isolated using Mitochondria Isolation Kit (Thermo Fisher Scientific, Rockford, IL) followed by a WB. Semi-quantification of the WB was done with Imagequant TL software v8.1 (GE healthcare Life Sciences, Little Chalfont, United Kingdom). TIM22 was used as a loading control for mitochondria. Cyclophilin A (PPIA) was used as a cytosolic marker.
# Antibodies used: anti-rabbit HK1 (C-20245) and HK2 (C-28765) from CST (Danvers, MA), anti-rabbit PPIA (ab41684, Abcam), anti-rabbit TIM22 (14927-1-AP, Proteintech Group Inc., Rosemont, IL), anti-rabbit Cytochrome C (PA1118, Boster Biological Technology, Pleasanton, CA). Detection was performed using secondary antibodies: peroxidase-conjugated Affinipure goat anti-rabbit IgG (H+L) or goat anti-mouse IgG (H+L) (111-035-003 and 115-035-003, Jackson ImmunoResearch, West Grove, PA), and development was using the ECL kit WesternBright™ ECL (K-12045-D10, Advansta, Menlo Park, California, USA).
# [16] = Phase 1a single topical application, pharmacokinetics; assay type: in vivo, human; conditions: healthy volunteers
# Method: The Phase 1a clinical trial was a randomized, double-blinded, placebo-controlled, dose-escalation study in healthy older-adult volunteers to evaluate the safety, tolerability, and pharmacokinetics of a single topical dermal application of Formula C ointment. The study was conducted under FDA IND in a Phase 1 unit in the United States.
# Fifteen healthy volunteers, aged 35-70, were sequentially assigned to 1 of 3 consecutive treatment cohorts (5%, 10% or 20% Formula C ointment, respectively). Five subjects were randomized in a double-blind fashion in each dose cohort: 4 subjects received active Formula C ointment and 1 received matched placebo (0% Formula C; vehicle control). The study ointment (250 mg) was applied once to a 25 centimeter squared area of skin on the forehead of each volunteer.
# T1 sequence (P19367 whole entry): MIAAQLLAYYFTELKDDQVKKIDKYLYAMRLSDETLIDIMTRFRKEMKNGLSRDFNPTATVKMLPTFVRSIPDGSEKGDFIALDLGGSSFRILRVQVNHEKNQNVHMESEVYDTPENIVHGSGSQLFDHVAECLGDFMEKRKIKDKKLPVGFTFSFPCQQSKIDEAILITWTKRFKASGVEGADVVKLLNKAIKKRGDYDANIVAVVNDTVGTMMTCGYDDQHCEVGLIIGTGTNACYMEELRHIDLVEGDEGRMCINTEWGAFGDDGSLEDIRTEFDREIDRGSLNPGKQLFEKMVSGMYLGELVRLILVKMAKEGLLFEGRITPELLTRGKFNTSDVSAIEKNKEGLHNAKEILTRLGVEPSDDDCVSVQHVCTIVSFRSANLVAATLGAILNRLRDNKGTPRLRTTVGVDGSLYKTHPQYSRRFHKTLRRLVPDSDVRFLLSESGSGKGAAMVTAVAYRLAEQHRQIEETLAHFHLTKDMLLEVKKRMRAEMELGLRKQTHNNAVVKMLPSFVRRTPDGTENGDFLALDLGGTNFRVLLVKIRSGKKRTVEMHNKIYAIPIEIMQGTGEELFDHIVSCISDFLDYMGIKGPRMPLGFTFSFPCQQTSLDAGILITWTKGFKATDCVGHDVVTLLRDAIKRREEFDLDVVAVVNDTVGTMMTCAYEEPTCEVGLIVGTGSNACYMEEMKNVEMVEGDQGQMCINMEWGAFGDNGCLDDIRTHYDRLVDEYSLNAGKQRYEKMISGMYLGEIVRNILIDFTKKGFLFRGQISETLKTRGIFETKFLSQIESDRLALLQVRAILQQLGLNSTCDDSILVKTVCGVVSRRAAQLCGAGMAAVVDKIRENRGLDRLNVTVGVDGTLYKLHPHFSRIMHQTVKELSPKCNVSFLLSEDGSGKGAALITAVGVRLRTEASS
smiles,measurement,setting,value
CC/C=C\CC1C(=O)CCC1CC(=O)Oc1cccc2cccnc12 (centres unmarked) [Formula C],IC50,[1],3370 nM
same,IC50,A431 Skin SCC cells,14 nM
same,IC50,[2],228 nM
same,IC50,Colon CXF 243,1760 nM
same,IC50,Stomach GXF 97,6450 nM
same,IC50,[3],985 nM
same,IC50,[4],1160 nM
same,IC50,[5],1200 nM
same,IC50,[6],2180 nM
same,IC50,[7],1160 nM
same,IC50,[8],2760 nM
same,IC50,[9],2780 nM
same,IC50,[10],1360 nM
same,IC50,[11],6820 nM
same,IC50,Lung (SCLC) LXFS NCI-H82,1770 nM
same,IC50,[12],1280 nM
same,IC50,Breast MAXF 401,4220 nM
same,IC50,Prostate PRXF MRI-H-1579,1660 nM
same,IC50,Kidney RXF 1220,6330 nM
same,IC50,[13],< 1000 nM
same,IC50,[14],1470 nM
same,HK1 association with the mitochondria,[15],not affected
same,systemic exposure of VDA-1102 or its major metabolite,[16],No systemic exposure
